Among the test systems are 786-0 renal; HOP-92 NSCLC; HT29 colon; OVCAR-4 ovarian; SK-MEL-2 melanoma; SK-OV-3 ovarian; SN12C renal; SNB-75 CNS; UO-31 renal; K-562 leukemia.
Common to all, as to test: DTP human tumour cell line panel, 48 h

SMILES strings stand for the structures.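 How tested: cells in 96-well plates exposed to compound for 48 hours at five concentrations. Here, GI50 denotes the concentration required for 50% inhibition of growth. Definition used: TGI = concentration required for complete inhibition of growth.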

Regarding `NC(=NCCCCCCN=C(N)/N=C(\N)Nc1ccc(Cl)cc1)/N=C(\N)Nc1ccc(Cl)cc1`, the GI50 (commonly the concentration that inhibits growth by half) in the test with 786-0 renal was 1.6 µM; in the test with HOP-92 NSCLC it was 1.41 µM; with HT29 colon, 1.62 µM; with OVCAR-4 ovarian, 1.72 µM; in the test with SK-MEL-2 melanoma it was 1.31 µM; with SK-OV-3 ovarian, 0.916 µM. In addition, the GI50 was 1.27 µM with SN12C renal, 1.03 µM in the test on SNB-75 CNS and 2.61 µM with UO-31 renal. The TGI (usually the concentration at which net growth stops) turned out to be 5.8 µM in the test with 786-0 renal; 3.8 µM in the test on HOP-92 NSCLC; 5.18 µM in the test with HT29 colon; 6.46 µM in the test with OVCAR-4 ovarian; 3.18 µM in the test on SK-MEL-2 melanoma; 5.54 µM with SK-OV-3 ovarian. For the same molecule, the TGI with SN12C renal was 5.77 µM; in the test on SNB-75 CNS, 2.92 µM; in the test on UO-31 renal, 11 µM.
`O=[N+]([O-])c1ccccc1N=Nc1c(O)[nH]c2c(Cl)cccc12`: the TGI with 786-0 renal was 31.1 µM; with HT29 colon, 99.4 µM; in the test with K-562 leukemia it was over 100 µM; in the test with OVCAR-4 ovarian it was 24.8 µM; in the test on SK-MEL-2 melanoma it was over 100 µM; in the test on SK-OV-3 ovarian, 54.7 µM. For the same molecule, the results for the TGI in the test on SN12C renal, with SNB-75 CNS and in the test on UO-31 renal were over 57.7 µM, 51.7 µM and over 67.2 µM, respectively.
For the molecule `COC1C(OC(=O)c2ccc(C)[nH]2)C(O)C(Oc2ccc3c(O)c(NC(=O)c4ccc(O)c(CC=C(C)C)c4)c(=O)oc3c2Cl)OC1(C)C` (configuration not stated), the TGI with 786-0 renal was 31.9 µM; with HT29 colon, 29.7 µM; in the test with K-562 leukemia, over 100 µM; in the test on OVCAR-4 ovarian, 99.6 µM; with SK-MEL-2 melanoma, 27 µM; in the test with SK-OV-3 ovarian, 54.6 µM. Besides, the TGI came out at 53.2 µM in the test on SN12C renal and 72.9 µM in the test on SNB-75 CNS.
Regarding `Cc1cc(N(CCC#N)CCC#N)ccc1/C=C(\NC(=O)/C=C/c1ccccc1)C(=O)Nc1ccccc1Cl`, the TGI was over 100 µM in the test on 786-0 renal; 94.5 µM with HOP-92 NSCLC; over 100 µM with HT29 colon; over 100 µM in the test with K-562 leukemia; over 100 µM in the test with OVCAR-4 ovarian; over 100 µM with SK-MEL-2 melanoma. Further, the TGI with SN12C renal and in the test with UO-31 renal was over 100 µM in each case.
As to `CCOc1ccc(NC(=O)CC2SC(=Nc3ccc(C)cc3)NC2=O)cc1` (configuration not stated), the TGI in the test with 786-0 renal, in the test on HT29 colon, with OVCAR-4 ovarian, with SK-OV-3 ovarian, with SN12C renal and in the test with SNB-75 CNS was over 100 µM throughout. In the test on UO-31 renal, this molecule showed a TGI of over 100 µM.
With `C=CCNC(=S)NNC(=O)c1c(C)nc2sccn12`, the TGI with 786-0 renal, in the test with HOP-92 NSCLC, in the test with HT29 colon, with K-562 leukemia, in the test with SK-MEL-2 melanoma and in the test with SK-OV-3 ovarian was over 100 µM throughout. This molecule also yielded a TGI with SN12C renal of over 100 µM.
On to `Clc1ccc(C=Nc2ccc(-c3nc4ccccc4[nH]3)cc2)cc1`, for which the GI50 in the test on 786-0 renal was over 100 µM; in the test with HOP-92 NSCLC it was 89.1 µM; in the test on HT29 colon, over 100 µM; in the test on OVCAR-4 ovarian, over 100 µM; in the test with SK-MEL-2 melanoma, over 100 µM; in the test with SK-OV-3 ovarian, over 100 µM. The figures for the GI50 with SN12C renal, in the test on SNB-75 CNS and with UO-31 renal were over 100 µM, 77.7 µM and over 100 µM, respectively. Besides, the TGI with 786-0 renal, with HOP-92 NSCLC, with HT29 colon, in the test on OVCAR-4 ovarian, in the test with SK-MEL-2 melanoma and in the test on SK-OV-3 ovarian was over 100 µM in each case. Also, the TGI in the test with SN12C renal, in the test on SNB-75 CNS and in the test with UO-31 renal was over 100 µM each time.
As for `Cc1cc(N2CCC(N3CCCC3)CC2)nc(/N=C(\N)Nc2ccc(Cl)c(Cl)c2)n1`, the GI50 was 1.82 µM in the test with 786-0 renal; 1.85 µM in the test with HT29 colon; 2.58 µM in the test with K-562 leukemia; 2.02 µM with OVCAR-4 ovarian; 2.11 µM in the test on SK-MEL-2 melanoma; 1.88 µM in the test on SK-OV-3 ovarian. Also, the GI50 in the test on SN12C renal is 2.7 µM; in the test with SNB-75 CNS it was 1.58 µM; with UO-31 renal, 1.44 µM. The TGI in the test on 786-0 renal was 3.41 µM; in the test with HT29 colon it was 3.87 µM; in the test on K-562 leukemia, over 100 µM; in the test with OVCAR-4 ovarian, 3.99 µM; in the test on SK-MEL-2 melanoma it was 3.85 µM; with SK-OV-3 ovarian it was 3.49 µM. The figures for the total growth inhibition concentration (TGI) in the test on SN12C renal, in the test on SNB-75 CNS and in the test on UO-31 renal were 10.9 µM, 3.12 µM and 2.85 µM, respectively.
`Cc1ccc(C)c2c1C1CCCCC3(OCCCO3)C21O` (configuration not stated): the TGI in the test on 786-0 renal, in the test with HT29 colon, in the test on K-562 leukemia, with OVCAR-4 ovarian, in the test with SK-MEL-2 melanoma and in the test on SK-OV-3 ovarian was over 100 µM each time. Moreover, the TGI in the test with SN12C renal, in the test on SNB-75 CNS and in the test on UO-31 renal was over 100 µM in each case.
For `Cc1cc(NCCCCCCCNc2cc(C)nc3cc(N)ccc23)c2ccc(N)cc2n1`, the TGI with 786-0 renal is over 100 µM; in the test with HT29 colon, over 100 µM; in the test on K-562 leukemia it was 26.1 µM; in the test with OVCAR-4 ovarian, over 100 µM; in the test on SK-MEL-2 melanoma, over 100 µM; in the test on SK-OV-3 ovarian, over 100 µM. In addition, the TGI with SN12C renal, with SNB-75 CNS and with UO-31 renal was over 100 µM throughout.
`C=C1OC2OC(C)C(NC(=O)OCC(Cl)(Cl)Cl)C(OC(C)=O)C2O1` (configuration not stated): the TGI in the test on 786-0 renal, with HOP-92 NSCLC, in the test on HT29 colon, in the test with K-562 leukemia, in the test on OVCAR-4 ovarian and in the test on SK-OV-3 ovarian was over 100 µM throughout. Moreover, the TGI with SN12C renal and in the test on UO-31 renal was over 100 µM throughout.
`CCOc1ccc(C2=NN(CC)C(=O)C(C3C(=O)N(c4ccccc4)N=C3C)C2)cc1` (configuration not stated): the TGI with 786-0 renal, with HOP-92 NSCLC, in the test on HT29 colon, in the test with K-562 leukemia, in the test with OVCAR-4 ovarian and in the test on SK-MEL-2 melanoma was over 100 µM in each case. The TGI with SK-OV-3 ovarian and with UO-31 renal was over 100 µM throughout.

These data come from PubChem BioAssay (NCI).
